Experiments:
[1] = tested on: Sclerotinia homoeocarpa (SCLEHO); assay: Field assessment of Sclerotinia homoeocarpa (SCLEHO), dollar spot, on creeping bentgrass; format: in vivo
[2] = tested on: Glomerella graminicola (COLLGR); assay: Field assessment of Glomerella graminicola (COLLGR), anthracnose, on annual bluegrass; format: in vivo

COc1ccnc(C(=O)N[C@@H](C)C(=O)O[C@@H](C)C(c2ccc(F)cc2)c2ccc(F)cc2)c1OC(C)=O [Compound I, (S)-1,1-bis(4-fluorophenyl)propan-2-yl (3-acetoxy-4-methoxypicolinoyl)-L-alaninate]
Dollar Spot Infestation (% Visual) ([1]; 250 g ai/ha, 0 DAAA, percentage of plot infested): 2.2% | Dollar Spot Infestation (% Visual) ([1]; 250 g ai/ha, 6 DAAC): 0.6% | Dollar Spot Infestation (% Visual) ([1]; 250 g ai/ha, 8 DAAA): 0.8% | Dollar Spot Infestation (% Visual) ([1]; 250 g ai/ha, 8 DAAB): 0.8% | Dollar Spot Infestation (% Visual) ([1]; 250 g ai/ha, 13 DAAB): 1.1% | Dollar Spot Infestation (% Visual) ([1]; 250 g ai/ha, 13 DAAC): 2.1% | Dollar Spot Infestation (% Visual) ([1]; 250 g ai/ha, 14 DAAA): 0.7% | Dollar Spot Infestation (% Visual) ([1]; 500 g ai/ha, 0 DAAA): 1.7% | Dollar Spot Infestation (% Visual) ([1]; 500 g ai/ha, 6 DAAC): 0.3% | Dollar Spot Infestation (% Visual) ([1]; 500 g ai/ha, 8 DAAA): 0.5% | Dollar Spot Infestation (% Visual) ([1]; 500 g ai/ha, 8 DAAB): 0.5% | Dollar Spot Infestation (% Visual) ([1]; 500 g ai/ha, 13 DAAB): 0.6% | Dollar Spot Infestation (% Visual) ([1]; 500 g ai/ha, 13 DAAC): 0.5% | Dollar Spot Infestation (% Visual) ([1]; 500 g ai/ha, 14 DAAA): 0.5% | Dollar spot control compared with commercial standards (in words) ([1]; Compound I applied at 500 g ai/ha): provided better control than Eagle 20EW and was equivalent to Xzemplar Fungicide | Dollar spot disease control (in words) ([1]; formulations of Compound I, observation period): significantly reduce dollar spot disease | Anthracnose control compared with commercial standard (in words) ([2]; 250 and 500 g ai/ha treatments, Poa annua): equivalent to the control provided by Velista | Anthracnose Infestation (% Visual) ([2]; 250 g ai/ha, 0 DAAA, Poa annua, percentage of plot infested): 22.1% | Anthracnose Infestation (% Visual) ([2]; 250 g ai/ha, 8 DAAA, Poa annua): 7% | Anthracnose Infestation (% Visual) ([2]; 250 g ai/ha, 10 DAAB, Poa annua): 22.1% | Anthracnose Infestation (% Visual) ([2]; 250 g ai/ha, 11 DAAC, Poa annua): 11.5% | Anthracnose Infestation (% Visual) ([2]; 250 g ai/ha, 14 DAAA, Poa annua): 7% | Anthracnose Infestation (% Visual) ([2]; 250 g ai/ha, 17 DAAB, Poa annua): 11.5% | Anthracnose Infestation (% Visual) ([2]; 250 g ai/ha, 17 DAAC, Poa annua): 22.1% | Anthracnose Infestation (% Visual) ([2]; 500 g ai/ha, 0 DAAA, Poa annua): 43.2% | Anthracnose Infestation (% Visual) ([2]; 500 g ai/ha, 8 DAAA, Poa annua): 9.2% | Anthracnose Infestation (% Visual) ([2]; 500 g ai/ha, 10 DAAB, Poa annua): 9.2% | Anthracnose Infestation (% Visual) ([2]; 500 g ai/ha, 11 DAAC, Poa annua): 11.5% | Anthracnose Infestation (% Visual) ([2]; 500 g ai/ha, 14 DAAA, Poa annua): 7% | Anthracnose Infestation (% Visual) ([2]; 500 g ai/ha, 17 DAAB, Poa annua): 11.5% | Anthracnose Infestation (% Visual) ([2]; 500 g ai/ha, 17 DAAC, Poa annua): 11.5% | Anthracnose disease control (in words) ([2]; formulations of Compound I, Poa annua putting greens): provided significant control of anthracnose disease
